From patent US9884851B2, “Heterocycle-bisamide inhibitors of scavenger receptor BI” (THE BROAD INSTITUTE, INC., priority 2012, dated 2018)
pIC50: −log10 of the molar value. Converted amounts (≈) assume the structure as drawn. “Also recorded” adds a separate entry of the source.

How the values were obtained:
SR-BI = target: T1, SR-BI (Mus musculus, UniProt Q61009); assay: DiI-HDL uptake assay with extended washout; assay type: cell-based, murine; design: expressed in transfected cells; host or cells: ldlA[mSR-BI], Chinese hamster ovary (CHO) cells lacking LDL receptor (Krieger Laboratory); conditions: 4-hour washout period
T1 sequence (Q61009 1-509): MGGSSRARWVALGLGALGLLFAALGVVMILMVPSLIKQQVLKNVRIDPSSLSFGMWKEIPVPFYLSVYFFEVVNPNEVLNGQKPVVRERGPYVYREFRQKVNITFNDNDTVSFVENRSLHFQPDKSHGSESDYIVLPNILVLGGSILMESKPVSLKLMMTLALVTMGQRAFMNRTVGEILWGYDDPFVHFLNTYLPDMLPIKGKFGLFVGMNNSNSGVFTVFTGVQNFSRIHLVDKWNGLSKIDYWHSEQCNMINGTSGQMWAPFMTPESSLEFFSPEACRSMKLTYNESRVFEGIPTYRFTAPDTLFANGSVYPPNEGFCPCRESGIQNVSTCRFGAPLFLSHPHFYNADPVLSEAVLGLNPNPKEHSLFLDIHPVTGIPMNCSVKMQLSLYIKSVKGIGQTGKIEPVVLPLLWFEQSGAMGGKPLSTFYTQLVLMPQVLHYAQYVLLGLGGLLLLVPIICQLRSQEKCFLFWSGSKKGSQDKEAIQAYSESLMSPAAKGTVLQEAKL
Description: DiI-HDL Uptake Assay with Extended Washout (SA 5: AID No. 588831)
This is another modification of the primary assay where cells are pretreated with compound but no compound is present during a 4-hour washout period or the subsequent 3-hour DiI-HDL treatment period. […] Cells were treated with compound for 3 hours, then were washed four times with PBS, once with lipoprotein-free media (Ham's F12/0.5% fatty acid-free Bovine Serum Albumin [BSA]/25 mM HEPES pH 7.4), and then returned to the incubator with lipoprotein-free media for 4 hours. Media were then removed and cells were washed with PBS before fresh lipoprotein-free media (Ham's F12/0.5% fatty acid-free Bovine Serum Albumin [BSA]/25 mM HEPES pH 7.4) was added with 10 μg protein/ml DiI-HDL. Cells took up the DiI via SR-BI over 3 hours in the absence of compound. After significant uptake of the DiI, the cells became fluorescent. The level of fluorescence correlates with the amount of DiI uptake and can be measured with a standard plate reader. The uptake of lipid (represented by DiI) was inhibited by the compound BLT-1 or with an excess of HDL untreated with DiI.

ldlA[mSR-BI] cells = assay: Cell cytotoxicity assay (CellTiter-Glo); conditions: ldlA[mSR-BI] cells
Description: It is possible that a compound will cause cells to decrease HDL-mediated DiI uptake due to nonspecific consequences of cellular toxicity, representing a second class of false positive hits. The cells were treated with compounds for 3 hours or 24 hours, and then cell viability was measured using the CellTiter-Glo Assay (Promega), a luciferase-based reagent that measures cellular ATP levels. The compounds were tested at different concentrations to determine IC50 values. […] Data were normalized against DMSO and the positive control (1 μM BLT-1) in Genedata Assay Analyzer.
All available dry powder samples of the remaining, non-quenching compounds were procured from commercial sources and purities were determined. The compounds obtained were then retested in the primary assay and in cytotoxicity assays. We wanted to rule out any compounds that were cytotoxic, especially in the 3-hour time span of the primary DiI-HDL uptake assay. Therefore, compounds were tested in ldl[mSR-BI] cells for cytotoxicity at 3 hours and 24 hours using the CellTiter-Glo assay (Promega) that measures cellular ATP as a marker of cell viability. […] Compounds were screened for inhibition of endocytosis using labeled transferrin, which is known to bind the transferrin receptor, enter cells by clathrin-mediated endocytosis, and move to endosomes before being recycled to the cell surface.

Solubility in PBS = assay type: physicochemical; conditions: PBS pH 7.4, 23° C., 1% DMSO
Description: (§1) We noticed that the concentration of the probe fluctuated through the course of the assay (data not shown). We believe that this fluctuation is due to the low kinetic solubility of the probe. Thus, we decided to determine the amount of undissolved probe present in the well after it was treated with PBS for a given length of time, relative to the amount of undissolved probe at the start of the assay. The wells were centrifuged and the supernatant was removed after various time points, then acetonitrile was added to dissolve the remaining solid in the wells, and the amount of probe was quantified. […] The stability of the probe was confirmed by measuring stability in human plasma, with >99% remaining after a 5-hour incubation period. […] FIG. 5 summarizes known properties of the probe.

[1] = Stability in human plasma; assay type: in vitro ADME; conditions: 5-hour incubation
Description: as §1

[2] = system: endocytosis of transferrin; assay: Transferrin endocytosis assay; assay type: cell-based, Chinese hamster; conditions: concentrations up to 35 μM
From the text: Transferrin Endocytosis Assay (SA 3: AID No. 602134)
This assay measures the endocytosis of an independent ligand, transferrin, which is not taken up via SR-BI but by clathrin-mediated endocytosis; thus providing a measure of the selectivity of the inhibitors. Alexa-594-labeled transferrin is taken into the cell via endocytosis and localization of labeled transferrin can be quantitated in the various intracellular compartments. […] Inhibitors of interest should act selectively at SR-BI and should have no activity in this assay.
Cells were pre-treated with compound for 3 hours and then treated with the Alexa-594 transferrin reagent for 30 minutes (Catalog No. T-13343; Invitrogen) in serum-free media. Plates of cells were then placed onto ice, washed with ice cold PBS, and then fixed with 4% paraformaldehyde. In addition, the nuclei were stained with 300 nM 4′,6-diamidino-2-phenylindole (DAPI) (Catalog No. 21490; Invitrogen). The cells were imaged with the Molecular Devices IXM microscope. Translocation measurements were performed using MetaExpress software and normalized for cell number.

Stability to GSH = assay type: physicochemical
From the text: Probe 2 (ML279) can potentially act as an electrophile under biological conditions, with its tetrazole alpha to the western amide.

In the case of `CCCCCCC1CCCC1=NNC(N)=S` (stereo not shown) [BLT-1, reference compound], the pIC50 (SR-BI; read-out: DiI-HDL uptake IC50 after 4-hour washout period) was 9.22 and the “cytotoxicity (in words)” value (ldlA[mSR-BI] cells) was “extremely toxic to cells”.
For `C[C@H](C(=O)NC1CCCC1)N(C(=O)Cn1nnc(-c2ccc3c(c2)OCO3)n1)C1CCCCC1` [ML279, (R)-2-(2-(5-(Benzo[d][1,3]dioxol-5-yl)-2H-tetrazol-2-yl)-N-cyclohexylacetamido)-N-cyclopentylpropanamide], the solubility (Solubility in PBS; listed as CID53393835) was 27 µM (≈ 12.7 µg/mL), the solubility (Solubility in PBS; phosphate buffered saline, 23 °C, pH 7.4, aqueous buffer, kinetic from dmso stock) was 28 µM (≈ 13.1 µg/mL) and the “stability in human plasma, remaining” value [1] was greater than 99%. For the same compound, the “endocytosis of transferrin (in words)” value [2] was “does not inhibit endocytosis of transferrin; also recorded: not grossly perturbing cellular membrane trafficking pathways; also recorded: no effect on the endocytosis of transferrin”, the “endocytosis of transferrin (in words)” value ([2]; listed as compound of Formula (II)) was “does not inhibit endocytosis of transferrin” and the “stability to GSH (in words)” value (Stability to GSH) was “stable to GSH”. For the same compound, the “activity after extended washout (in words)” value (SR-BI) was “greatly attenuated” and the “cytotoxicity (in words)” value (ldlA[mSR-BI] cells) was “not cytotoxic; also recorded: no cytotoxicity at 24 hours”.
